# Measurements taken from ChEMBL document CHEMBL1121983, “Conformational requirements for norepinephrine uptake inhibition by phenethylamines in brain synaptosomes. Effects of alpha-alkyl substitution” (J Med Chem, 1982).
# Organism: Rattus norvegicus
# Assay: Inhibition of [3H]norepinephrine uptake was determined in rat brain synaptosomal preparation
# Format: functional
row,Compound,IC50 [nM]
1,N[C@H]1CCc2ccccc2C1 (racemic),850
2,CC(N)Cc1ccccc1 (racemic),490
3,N[C@H]1C=Cc2ccccc2C1 (racemic),650
4,CC[C@H](N)Cc1ccccc1 (racemic),6500
